Assay results: article PMC11225352, “A multicenter, randomized, double-blind, placebo-controlled ascending dose study to evaluate the safety, tolerability, pharmacokinetics (PK) and pharmacodynamic (PD) effects of Posiphen in subjects with early Alzheimer’s Disease” (Alzheimer's Research & Therapy, 2024)
Marks after values point to notes of the source that are not given here.

Legend:
[1] = system: Aβ; design: method as in PMID 24828079; conditions: mice and cognitively normal humans (aged 18–50), single dose of 60 mg; cited from earlier work
[2] = Plasma pharmacokinetics of Posiphen and its N1 and N8 metabolites (LC-MS, non-compartmental); format: in vivo, human; conditions: for AUC0 − 24 in plasma, dose proportionality: between once daily and twice daily dosing; for mean levels averaged over 24 h of CSF sampling / AUC0 − 24 / Cmax / Tmax: plasma; for mean levels averaged over 24 h of CSF sampling: after 21–23 days, early AD
Source text: (§1) For the confinement visit, subjects arrived in the early morning after an overnight fast. Physical and neurological examination, vital signs, and assessment of compliance were completed and blood was drawn for safety laboratory tests. An intravenous line and a second line for repeated blood draw were placed. To sample CSF, the intrathecal space was accessed using a Perifix 18G Touhy Epidural Needle (90 mm), and a Polyamide Epidural Catheter (20G Closed Tip) was inserted and fixed in place by an Anesthesiologist. Participants received the last day’s dosing of study drug or placebo. Initial blood and CSF samples were drawn, intravenous infusion of ^13C6-leucine was started and continued for 9 h, during which time subjects received a low leucine diet. Blood and CSF were sampled every 2 h for 36 h. After 36 h, intravenous lines and the CSF catheter were removed, vital signs were measured, physical exam performed, and blood and CSF were sent for routine laboratory studies. […] If postural headache was present, a blood patch was performed. Once stable, participants underwent a brief exam and vital sign check and were discharged. They received a phone call 24 h after discharge to check on their wellbeing.
(§2) For biochemical analysis to derive data for SILK, ^13C6-leucine was analyzed in plasma and CSF by mass spectrometry, and Aβ peptides in CSF were analyzed by immunoprecipitation-mass spectrometry (IP-MS) as previously described, by C2N Diagnostics (St Louis, MO). CSF levels of sAPPα, sAPPβ, Aβ38, 40 and 42 were analyzed by the ADCS Biomarker Core using Mesoscale Discovery (MSD) electrochemiluminescent assays (Mesoscale Discovery, Rockville, MD). Levels of Posiphen and its N1 and N8 metabolites in plasma and CSF were measured by Charles River Laboratories (Montreal, CA) by high-performance liquid chromatographic mass spectrometry, with use of deuterated Posiphen (procured by Charles River Laboratories) as an internal standard.
(§3) A prespecified Statistical Analysis Plan (SAP) was prepared and finalized before the database lock occurred. For safety and tolerability, frequencies of adverse events, serious adverse events and laboratory abnormalities between the participants across the three groups are compared, using Pearson’s χ [2] or ANOVA, as appropriate. Plasma concentration-time data are analyzed by non-compartmental methods using WinNonlin version 6.2.1 or greater. Calculations are based on the actual sampling times recorded during the study. For PK analysis, only the subjects receiving Posiphen are included.
(§4) Noncompartmental pharmacokinetic parameters were estimated using Phoenix WinNonlin v8.3 (Certara, Princeton, NJ). Levels and parameters (Cmax, AUC) of posiphen, n-1 and n-8 metabolites were highly correlated in plasma and CSF. For the BID and TID doses the expected post dose plasma peaks appeared attenuated.

[3] = CSF pharmacokinetics of Posiphen and its N1 and N8 metabolites (lumbar catheter sampling, LC-MS); format: in vivo, human; conditions: for mean levels averaged over 24 h of CSF sampling: after 21–23 days, early AD
Source text: as §1, §2, §3, §4

[4] = 60 mg BID (n = 5), geometric mean (% geometric CV)
[5] = 60 mg BID (n = 5), median (min-max)
[6] = 60 mg daily (n = 4), geometric mean (% geometric CV)
[7] = 60 mg daily (n = 4), median (min-max)
[8] = 60 mg daily (n = 4; N1: only one participant measurable), geometric mean (% geometric CV)
[9] = 60 mg daily (n = 4; N1: only one participant measurable), median (min-max)

Structure (SMILES)	AUC0 − 24 in plasma, dose proportionality [2]	mean levels averaged over 24 h of CSF sampling ([2]; 60 mg BID (n = 5)) [ng/mL]	AUC0 − 24 [2, 4]	Cmax [2, 4]	Tmax [2, 5]	AUC0 − 24 ([2]; 60 mg TID (n = 1)) [ng·h/mL]	Cmax ([2]; 60 mg TID (n = 1)) [ng/mL]	Tmax ([2]; 60 mg TID (n = 1)) [h]	mean levels averaged over 24 h of CSF sampling ([2]; 60 mg TID (n = 1)) [ng/mL]	AUC0 − 24 [2, 6]	Cmax [2, 6]	Tmax [2, 7]	mean levels averaged over 24 h of CSF sampling ([2]; 60 mg once daily (n = 5)) [ng/mL]	mean levels averaged over 24 h of CSF sampling ([3]; 60 mg (n = 5)) [ng/mL]	mean levels averaged over 24 h of CSF sampling ([3]; 60 mg BID (n = 5)) [ng/mL]	AUC0 − 24 [3, 4]	Cmax [3, 4]	Tmax [3, 5]	mean levels averaged over 24 h of CSF sampling ([3]; 60 mg TID (n = 1)) [ng/mL]	AUC0 − 24 [3, 8]	other results
CN(C)CCCC1(c2ccc(F)cc2)OCc2cc(C#N)ccc21 (stereo not drawn) [citalopram]	–	–	–	–	–	–	–	–	–	–	–	–	–	–	–	–	–	–	–	–	Aβ production (SILK) [1]: decreased
CN1CC[C@]2(C)c3cc(OC(=O)Nc4ccccc4)ccc3NC12 (stereo partly drawn) [N8]	increased approximately proportionally	5.04 ± 1.80	113.65 (44.01) hr*ng/mL	10.01 (27.79) ng/mL	12 (2–20) hr	80.40	5.41	2	3.35	66.02 (20.83) hr*ng/mL	6.81 (25.10) ng/mL	3 (3–4) hr	2.25 ± 1.36	0.35 ± 0.26	0.77 ± 0.43	17.88 (58.47) hr*ng/mL	1.41 (39.33) ng/mL	12 (4–20) hr	0.15	8.91 (47.91) hr*ng/mL	AUC0 − 24 ([3]; 60 mg TID (n = 1)): 6.26 ng·h/mL; Cmax ([3]; 60 mg TID (n = 1)): 0.62 ng/mL; Tmax ([3]; 60 mg TID (n = 1)): 12 h; Cmax [3, 8]: 1.01 (14.14) ng/mL; Tmax [3, 9]: 4 (2–8) hr
CN1c2ccc(OC(=O)Nc3ccccc3)cc2[C@]2(C)CCN[C@H]12 [N1]	increased approximately proportionally	3.02 ± 1.40	65.06 (58.61) hr*ng/mL	6.96 (32.01) ng/mL	12 (2–20) hr	60.18	5.48	2	2.51	36.60 (19.24) hr*ng/mL	5.43 (21.98) ng/mL	2 (2–4) hr	1.29 ± 0.77	0.02 ± 0.04	0.28 ± 0.30	8.75 (83.50) hr*ng/mL	0.90 (31.32) ng/mL	12 (4–20) hr	0.00	1.33* hr*ng/mL	Cmax [3, 8]: 0.66* ng/mL; Tmax [3, 9]: 4* hr
